# Laboratory results as given in patent publication US9051310B2, “Nicotinamide derivative or salt thereof” (FUJIFILM Corporation, priority 2011, dated 2015).
# Molecular target: T1, glutathione S-transferase (GST)-linked full-length human Syk protein (Homo sapiens, UniProt P43405)
# T1 construct: glutathione S-transferase (GST)-linked full-length human Syk protein; purchased Carna Biosciences; host or cells: Baculovirus expression system
# Assay: Syk enzyme assay
# Type: biochemical
# Settings: 0.83 nM Syk, time-resolved fluorescence; read-out: IC50 of Syk-inhibitory activity
# In short: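 Phosphotyrosine on a biotin-peptide substrate (0.5 μM) was read by time-resolved fluorescence at 615 and 665 nm with Eu-anti-pTyr antibody and APC-streptavidin after 1 h EDTA stop.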
row,Structure (SMILES),IC50 [µM]
1,"COCCOc1cc(Nc2nc(N[C@H](C)[C@@H](N)C3CC3)c(F)cc2C(N)=O)ccn1 [Example 2-228, 6-(((1S,2R)-1-amino-1-cyclopropylpropan-2-yl)amino)-5-fluoro-2-((2-(2-methoxyethoxy)pyridin-4-yl)amino)nicotinamide]",0.05 to 0.1
2,"CC(C)C[C@@H](Nc1nc(Nc2cnc(N3CCOCC3)c(F)c2)c(C(N)=O)cc1F)[C@H](C)N [Example 2-237, 6-(((2S,3R)-2-amino-5-methylhexan-3-yl)amino)-5-fluoro-2-((5-fluoro-6-morpholinopyridin-3-yl)amino)nicotinamide]",0.01 to 0.05
3,"Cc1nn(C)c2ncc(Nc3nc(N[C@H](CC(C)C)[C@H](C)N)c(F)cc3C(N)=O)cc12 [Example 2-245, 6-(((2S,3R)-2-amino-5-methylhexan-3-yl)amino)-2-((1,3-dimethyl-1H-pyrazolo[3,4-b]pyridin-5-yl)amino)-5-fluoronicotinamide]",< 0.01
4,"CC[C@H](N)[C@@H](CC)Nc1nc(Nc2cnc3c(c2)c(C)nn3C)c(C(N)=O)cc1F [Example 2-248, 6-(((3R,4S)-4-aminohexan-3-yl)amino)-2-((1,3-dimethyl-1H-pyrazolo[3,4-b]pyridin-5-yl)amino)-5-fluoronicotinamide]",0.05 to 0.1
5,"COc1nn(C)c2ncc(Nc3nc(N[C@@H](CN)CC(C)C)c(F)cc3C(N)=O)cc12 [Example 2-250, (R)-6-((1-amino-4-methylpentan-2-yl)amino)-5-fluoro-2-((3-methoxy-1-methyl-1H-pyrazolo[3,4-b]pyridin-5-yl)amino)nicotinamide]",< 0.01
6,"CC[C@H](N)[C@@H](C)Nc1nc(Nc2cnc3c(c2)c(OC)nn3C)c(C(N)=O)cc1F [Example 2-257, 6-(((2R,3S)-3-aminopentan-2-yl)amino)-5-fluoro-2-((3-methoxy-1-methyl-1H-pyrazolo[3,4-b]pyridin-5-yl)amino)nicotinamide]",0.05 to 0.1
7,"CCC[C@@H](Nc1nc(Nc2cnc(N3CCOCC3)c(F)c2)c(C(N)=O)cc1F)[C@H](C)N [Example 2-260, 6-(((2S,3R)-2-aminohexan-3-yl)amino)-5-fluoro-2-((5-fluoro-6-morpholinopyridin-3-yl)amino)nicotinamide]",0.01 to 0.05
8,"CCCC[C@@H](Nc1nc(Nc2cnc(N3CCOCC3)c(F)c2)c(C(N)=O)cc1F)[C@H](C)N [Example 2-262, 6-(((2S,3R)-2-aminoheptan-3-yl)amino)-5-fluoro-2-((5-fluoro-6-morpholinopyridin-3-yl)amino)nicotinamide]",0.01 to 0.05
9,"CCn1ncc2cc(Nc3nc(N[C@H](C4CCCCC4)[C@H](C)N)c(F)cc3C(N)=O)ccc21 [Example 2-264, 6-(((1R,2S)-2-amino-1-cyclohexylpropyl)amino)-2-((1-ethyl-1H-indazol-5-yl)amino)-5-fluoronicotinamide]",0.01 to 0.05
10,"CNc1ncc(Nc2nc(N[C@H](CC(C)C)[C@H](C)N)c(F)cc2C(N)=O)cc1F [Example 2-278, 6-(((2S,3R)-2-amino-5-methylhexan-3-yl)amino)-5-fluoro-2-((5-fluoro-6-(methylamino)pyridin-3-yl)amino)nicotinamide]",0.01 to 0.05

# More lines, now with the values ahead:
row,IC50 [µM],Structure (SMILES)
1,0.01 to 0.05,"CC[C@@H](Nc1nc(Nc2cnc(OC)c(-n3ccnn3)c2)c(C(N)=O)cc1F)[C@H](C)N [Example 2-204, 6-(((2S,3R)-2-aminopentan-3-yl)amino)-5-fluoro-2-((6-methoxy-5-(1H-1,2,3-triazol-1-yl)pyridin-3-yl)amino)nicotinamide]"
2,0.01 to 0.05,"CCOc1ncc(Nc2nc(N[C@H](CC)[C@H](C)N)c(F)cc2C(N)=O)cc1-n1ccnn1 [Example 2-206, 6-(((2S,3R)-2-aminopentan-3-yl)amino)-2-((6-ethoxy-5-(1H-1,2,3-triazol-1-yl)pyridin-3-yl)amino)-5-fluoronicotinamide]"
3,< 0.01,"CN(C)c1nn(C)c2ccc(Nc3nc(N[C@@H]4CCOC[C@@H]4N)c(F)cc3C(N)=O)cc12 [Example 2-212, 6-(((3R,4R)-3-aminotetrahydro-2H-pyran-4-yl)amino)-2-((3-(dimethylamino)-1-methyl-1H-indazol-5-yl)amino)-5-fluoronicotinamide]"
4,0.05 to 0.1,"Cc1ncc(Nc2nc(N[C@H](C)[C@@H](N)C3CC3)c(F)cc2C(N)=O)cc1-n1nccn1 [Example 2-226, 6-(((1S,2R)-1-amino-1-cyclopropylpropan-2-yl)amino)-5-fluoro-2-((6-methyl-5-(2H-1,2,3-triazol-2-yl)pyridin-3-yl)amino)nicotinamide]"
5,0.05 to 0.1,"C[C@H](N)[C@H](Nc1nc(Nc2cc(N3CCOCC3)ncc2F)c(C(N)=O)cc1F)C1CC1 [Example 2-234, 6-(((1R,2S)-2-amino-1-cyclopropylpropyl)amino)-5-fluoro-2-((5-fluoro-2-morpholinopyridin-4-yl)amino)nicotinamide]"
6,0.01 to 0.05,"CC[C@@H](Nc1nc(Nc2cnc3c(c2)c(C)nn3C)c(C(N)=O)cc1F)[C@H](C)N [Example 2-241, 6-(((2S,3R)-2-aminopentan-3-yl)amino)-2-((1,3-dimethyl-1H-pyrazolo[3,4-b]pyridin-5-yl)amino)-5-fluoronicotinamide]"
7,0.01 to 0.05,"CCCC[C@@H](Nc1nc(Nc2cnc3c(c2)c(C)nn3C)c(C(N)=O)cc1F)[C@H](C)N [Example 2-244, 6-(((2S,3R)-2-aminoheptan-3-yl)amino)-2-((1,3-dimethyl-1H-pyrazolo[3,4-b]pyridin-5-yl)amino)-5-fluoronicotinamide]"
8,0.05 to 0.1,"COC[C@@H](Nc1nc(Nc2cnc3c(c2)c(OC)nn3C)c(C(N)=O)cc1F)[C@H](C)N [Example 2-256, 6-(((2S,3S)-3-amino-1-methoxybutan-2-yl)amino)-5-fluoro-2-((3-methoxy-1-methyl-1H-pyrazolo[3,4-b]pyridin-5-yl)amino)nicotinamide]"
9,0.01 to 0.05,"CC[C@H](N)[C@@H](CC)Nc1nc(Nc2cnc3c(c2)c(OC)nn3C)c(C(N)=O)cc1F [Example 2-258, 6-(((3R,4S)-4-aminohexan-3-yl)amino)-5-fluoro-2-((3-methoxy-1-methyl-1H-pyrazolo[3,4-b]pyridin-5-yl)amino)nicotinamide]"
10,0.05 to 0.1,"CC[C@@H](Nc1nc(Nc2cnc(N3CCOCC3)c(F)c2)c(C(N)=O)cc1F)[C@H](C)N [Example 2-259, 6-(((2S,3R)-2-aminopentan-3-yl)amino)-5-fluoro-2-((5-fluoro-6-morpholinopyridin-3-yl)amino)nicotinamide]"
11,0.01 to 0.05,"CC(C)C[C@H](CN)Nc1nc(Nc2cnc(N3CCOCC3)c(F)c2)c(C(N)=O)cc1F [Example 2-261, (R)-6-((1-amino-4-methylpentan-2-yl)amino)-5-fluoro-2-((5-fluoro-6-morpholinopyridin-3-yl)amino)nicotinamide]"
12,0.01 to 0.05,"CC[C@@H](Nc1nc(Nc2cnc(NC)c(F)c2)c(C(N)=O)cc1F)[C@H](C)N [Example 2-276, 6-(((2S,3R)-2-aminopentan-3-yl)amino)-5-fluoro-2-((5-fluoro-6-(methylamino)pyridin-3-yl)amino)nicotinamide]"
13,0.01 to 0.05,"CCC[C@@H](Nc1nc(Nc2cnc(NC)c(F)c2)c(C(N)=O)cc1F)[C@H](C)N [Example 2-277, 6-(((2S,3R)-2-aminohexan-3-yl)amino)-5-fluoro-2-((5-fluoro-6-(methylamino)pyridin-3-yl)amino)nicotinamide]"
